Test results from patent US5585511A, “Platinum complex and malignant tumor treating drug containing the same” (SS Pharmaceutical Co., Ltd., priority 1994, dated 1996).

Experiments:
[1] = test system: murine L1210 leukemia cells; assay: Antitumor effect on murine L1210 leukemia cell (intraperitoneally inoculated mice, increase in life-span); format: in vivo, murine; male CDF1 mice; details: for ILS50 (a dose which shows 50% of the ILS value by 5 administrations): from linear regression line; for dose corresponding to ILSmax: dose shown in parenthesis; for ILSmax (maximum ILS value within the set doses): male CDF1 mice, observed for 30 days
Description: (§1) Murine L1210 leukemia cells (1×10^5 cells) were inoculated peritoneally into six-week-old male CDF1 mice.
(§2) T: mean survival days of drug-treated group
(§3) C: mean survival days of untreated group
(§4) In the table, ILSmax means the maximum ILS value (%) within the set doses, and its corresponding dose (mg/kg) is shown in parenthesis.

[2] = test system: cisplatin-resistant murine L1210 leukemia cell (L1210/DDP); assay: Antitumor effect on cisplatin-resistant murine L1210 leukemia cell (L1210/DDP), increase in life-span; format: in vivo, murine; male CDF1 mice; details: for dose corresponding to ILSmax: dose(s) shown in parenthesis; for ILSmax (maximum ILS value within the set doses): male CDF1 mice, observed for 30 days; for ILS50 (a dose which shows 50% of the ILS value by 5 administrations): ND: not detectable; for TI (therapeutic index LD50/ILS50): LD50/ILS50, ND: not detectable
Description: as §1, §2, §3, §4
Antitumor effect on cisplatin-resistant murine L1210 leukemia cell:
The above test of the antitumor effect on murine leukemia cells was repeated except that cisplatin-resistant murine L1210 leukemia cell (L1210/DDP) was used instead of murine L1210 leukemia cell, with the results shown in Table 2.

male CDF1 mice = assay: 50% lethal dose by single intraperitoneal administration; format: in vivo
Description: as §4

| Molecule | ILS50 (a dose which shows 50% of the ILS value by 5 administrations) [1] | dose corresponding to ILSmax [1] | ILSmax (maximum ILS value within the set doses) [1] | dose corresponding to ILSmax [2] | ILSmax (maximum ILS value within the set doses) [2] | LD50 (male CDF1 mice) | TI (therapeutic index LD50/ILS50) [1] | ILS50 (a dose which shows 50% of the ILS value by 5 administrations) [2] | TI (therapeutic index LD50/ILS50) [2] |
| --- | --- | --- | --- | --- | --- | --- | --- | --- | --- |
| N.N.[Cl][Pt][Cl] [Cisplatin, cisplatin, reference compound] | 1.3 mg/kg | 4 mg/kg | 97.5% | 4 mg/kg | 1.0% | – | – | – | – |
| O=C([O][Pt]1([Cl])[NH]C2CCCCC2[NH]1)C1CCCC1 (stereo not drawn) [Compound 16, chloro(cyclopentanecarboxylato)(trans-1-1,2-diaminocyclohexane)platinum(II)] | 5.6 mg/kg | 32 mg/kg | > 221.3% | 4,8 mg/kg | > 194.1% | 176.8 mg/kg | 31.6 | < 4.0 mg/kg | > 44.2 |
| chloro (cyclopropanecarboxylato) (trans-1-1,2-diaminocyclohexane)platinum(II) [Compound 15] | 1.2 mg/kg | 8 mg/kg | > 166.3% | 1,2 mg/kg | > 194.1% | 31.3 mg/kg | 26.1 | < 1.0 mg/kg | > 31.3 |
| chloro(1-lactato)(trans-1-1,2-diaminocyclohexane)platinum(II) [Compound 17] | < 1.0 mg/kg | 8 mg/kg | > 190.0% | 1,2 mg/kg | > 194.1% | 44.3 mg/kg | > 44.3 | < 1.0 mg/kg | > 44.3 |
| chloro(propionato)(trans-1-1,2-diaminocyclohexane)platinum(II) [Compound 14] | 1.0 mg/kg | 8 mg/kg | 146.3% | – | > 194.1% | 44.3 mg/kg | 44.3 | < 1.0 mg/kg | > 44.3 |
